{
  "source": "patent US20140335154A1",
  "about": "“METHODS AND FORMULATIONS TO ACHIEVE TUMOR TARGETED DOUBLE STRANDED RNA MEDIATED CELL DEATH” (MULTICELL IMMUNOTHERAPEUTICS, INC., priority 2013, published 2014)",
  "key": {"[1]": {"test_system": "mouse liver cancerous cell line BNL 1ME A.7R.1", "experiment": "MTT cytotoxicity on mouse liver cancerous cell line (FIG. 4B)", "format": "cell-based", "settings": "dose-effect", "method": "(§1) Analysis of Cytotoxicity and Anti-Proliferative Effect on Cells: Cytotoxicity was measured by MTT assay. Cells were seeded with the density of 5×10^3 cells/well in 96-well plate and incubated for 48 hours in a cell culture incubator, before being treated with compounds. Each compound was dissolved in RNase and DNase free PBS, and diluted to certain concentrations by the same PBS before being added into the cell culture supernatant. The final concentrations of 5 bps pA:pU were 50, 100, 150 and 200 μg/ml, and the gradient of 5 bps pA:pU s analogue was 50, 100, 300, 500 μg/ml. Poly(A:U) and Poly(I:C) were added at the final concentration of 200 μg/ml as controls. Cells without any treatment were the negative control. After incubation for specified times in the cell culture incubator, MTT reagent was added to the cells for the assay as described above."}, "THP-1 cells [2]": {"test_system": "THP-1 cells", "experiment": "Cytokine production in THP-1 cells (ELISA / Bio-Plex)", "format": "cell-based, human", "method": "(§2) Analysis of Cytokines Release: Cells were plated into 96-well plate with the density of 2×10^4 cells/well, cultured and were allowed to become subconfluent. After changing to fresh medium, the cells were treated with 5 bp pA:pU with analogues of 5 bp pA:pU, 70 bp pA:pU, analogues 70 bp pA:pU, or control Poly(A:U) and Poly(I:C) at the final concentration of 100 μg/ml. Cells without treatment were the negative control and cells treated with 1 μg/ml LPS were the positive control. After incubation, the supernatants were collected, centrifuged and then put at −80° C. immediately. Select cytokines, such as IL-6, IL-12(p70), IFN-α2, Tumor Necrosis Factor-α (TNF-α), TNF-related apoptosis-inducing ligand (TRAIL), were analyzed by Bio-Plex Assay kits.\n(§3) Experiments carried out in vitro compare low molecular weight dsRNAs (<15 bps) with high molecular weight dsRNAs (>70 bps). Data generated with dsRNA of similar size and chemical composition obtained by fractionation, indicate that low molecular weight dsRNAs (<15 bps) have substantial TNFalpha and cell death inducing properties in human monocytic THP-1 cells. […] The pro-inflammatory effect of low molecular weight dsrnas is evaluated by measuring cytokine production using elisa (r&d systems) in FIG. 3a as well as in FIG. 3b. cell proliferation, death, and apoptosis are measured by Ethidium bromide (EB), PI and YoPro staining (in FIG. 1), Fluorescence-Activated Cell Sorting (FACS) analysis and mtt assay, Annexin V and PI staining analyzed by flow cytometry (in FIGS. 3A, 3B, 4A, 4B, 4C, 5A and 5B)."}, "[3]": {"test_system": "human HCC cell line PLC/PRC/5", "experiment": "Cytokine production in HCC cell line PLC/PRC/5", "format": "cell-based", "settings": "for TNFalpha induction: PLC/PRC/5 cancer cells", "method": "as §2, §3"}, "[4]": {"test_system": "human HCC cell line PLC/PRC/5 and human HCC cell line Huh7", "experiment": "Cell apoptosis/necrosis, Annexin V and PI flow cytometry (FIG. 5A)", "format": "cell-based", "settings": "for cell death: PLC/PRC/5 and Huh7, 200 μg/ml", "method": "(§4) Analysis of Cell Apoptosis/Necrosis: Cells were plated into 24-well plates with the density of 1×10^5 cells/well, and cultured for 48 hours before treatments. The 5 bp polyA:polyU and its analogue, control Poly(A:U) and Poly(I:C) were added at the final concentration of 200 μg/ml into the cell culture supernatants. Cells without treatment were the negative control and the cells treated with 1 μg/ml Lipopolysaccharide (LPS) were the positive control. After incubation for specified time, the cells were harvested and washed with ice-cold PBS, resuspended in 100 μl AnnexinV binding buffer at a concentration of 1×10^5 cells/100 μl and incubated with 2 μl AnnexinV-FITC for 15 minutes at room temperature in the dark. Samples were washed with binding buffer and resuspended again in 100 μl same buffer. After adding 5 μl Propidium Iodide (PI), the samples were diluted with binding buffer and analyzed by flow cytometry (BD Biosciences). Apoptotic cells were identified as an AnnexinV-FITC-positive/PI-negative population.\nas §3"}, "[5]": {"test_system": "human HCC cell line HepG2 and THP-1 cells", "experiment": "Cell apoptosis/necrosis, Annexin V and PI flow cytometry (FIG. 5B)", "format": "cell-based", "settings": "for cell death: HepG2 and THP-1, 200 μg/ml", "method": "as §4, §3"}, "[6]": {"test_system": "human HCC lines Huh7, PLC/PRF/5, HepG2, primary liver cancer cells P7NSG59410 and P31NSG55368", "experiment": "MTT cytotoxicity and anti-proliferative effect on human liver cancer cells (FIGS. 4A, 4B)", "format": "cell-based", "method": "Analysis of Growth Curve: Cell lines were seeded at different initial densities in the 96-well plate for 7 days. The medium was changed every day. The viability and metabolic rate of cultured cells was determined daily by assaying the reduction of 3-(4,5-dimethyl thiazol-2-yl)-2,5-diphenyl tetrazolium bromide (MTT) to formazan. After incubation period, MTT was added into each well in final concentration of 0.5 mg/ml, and incubated at the same condition for 4 h. Then the formazan was collected and dissolved in 120 ul DMSO. The absorption was measured at 560-562 nm in an ELISA reader with 620 nm as reference wave.\nas §1\n(§5) Experiments carried out in vitro compare low molecular weight dsRNAs (<15 bps) with high molecular weight dsRNAs (>70 bps). […] The pro-inflammatory effect of low molecular weight dsrnas is evaluated by measuring cytokine production using elisa (r&d systems) in FIG. 3a as well as in FIG. 3b. cell proliferation, death, and apoptosis are measured by Ethidium bromide (EB), PI and YoPro staining (in FIG. 1), Fluorescence-Activated Cell Sorting (FACS) analysis and mtt assay, Annexin V and PI staining analyzed by flow cytometry (in FIGS. 3A, 3B, 4A, 4B, 4C, 5A and 5B)."}, "THLE2 cells": {"test_system": "THLE2 cells", "experiment": "MTT cytotoxicity on THLE2 cells emulating normal human liver cells (FIG. 4C)", "format": "cell-based", "method": "as §1"}, "[7]": {"test_system": "human liver cancer cell lines Huh7 and HepG2", "experiment": "MTT assay of Lipofectamine formulated vs unformulated pA:pU (FIG. 6)", "format": "cell-based", "settings": "Huh7 and HepG2, 24 hour treatment", "method": "In one embodiment, 5 bp dsRNAs are formulated using Lipofectamine 2000 to form lipid-based nanoparticles. One exemplary method follows the steps of: 1) in a microfuge tube 1.5 ul of Lipofectamine was diluted to a final volume of 23.5 ul using the appropriate media (per cell type); 2) 25 ul of the appropriate 5 bp dsRNAs analog dilution (to achieve the desired final per well concentration) was added to the diluted Lipofectamine and the mixture was incubated at Room Temperature (RT) for 5 minutes to form lipo-complexes; 3) 250 ul of the appropriate media was added to achieve a final volume of 300 ul; 4) 100 ul of the mixture from step 3 was added to each replicate and the cells was incubated for 24 hours.\nHuh7 and HepG2 Cells were plated in a 96 well plate at a density of 2500 cells per well. Cells were incubated for 24 hours. After 24 hours of incubation, the medium was removed and cells were treated with various formulations of 5 bp pA:pU in triplicate in their respective culture mediums with […] 10% FBS. Untreated cells and Dox (10 uM) were used as controls. Cells were incubated for an additional 24 hours. After the 24 hour drug treatment, the medium was removed. Fresh culture medium will be added and the MTT assay was performed using the Life Technologies Vybrant MTT kit. […] The plate was read at 570 nm."}, "[8]": {"test_system": "THP-1, PLC/PRC/5, Huh7 and HepG2 cells", "experiment": "Cytotoxicity, cell death and apoptosis of higher molecular weight dsRNA and controls (FIGS. 3A, 3B, 5A and 5B)", "format": "cell-based", "method": "as §1\nAnalysis of Cell Apoptosis/Necrosis: Cells were plated into 24-well plates with the density of 1×10^5 cells/well, and cultured for 48 hours before treatments. The 5 bp polyA:polyU and its analogue, control Poly(A:U) and Poly(I:C) were added at the final concentration of 200 μg/ml into the cell culture supernatants. Cells without treatment were the negative control and the cells treated with 1 μg/ml Lipopolysaccharide (LPS) were the positive control. […] After adding 5 μl Propidium Iodide (PI), the samples were diluted with binding buffer and analyzed by flow cytometry (BD Biosciences). […]\nas §5"}, "[9]": {"test_system": "cell line emulating normal hepatocytes", "experiment": "TNF-alpha production in a cell line emulating normal hepatocytes", "format": "cell-based, human", "method": "as §2"}, "THP-1 cells [10]": {"test_system": "THP-1 cells", "experiment": "MTT cytotoxicity on THP-1 cells (FIG. 4C)", "format": "cell-based, human", "settings": "THP-1, dose-effect", "method": "as §1, with “After incubation for specified times in the cell culture incubator, MTT reagent was added to the cells for the assay as described above.” left out\nas §5"}, "[11]": {"test_system": "human primary fibroblasts", "experiment": "MTT cytotoxicity on human primary fibroblasts (FIG. 4C)", "format": "cell-based", "method": "as §1"}, "[12]": {"test_system": "PLC/PRC/5 and THP-1 cells", "experiment": "TNFalpha and IL-6 induction by higher molecular weight dsRNA and controls (FIGS. 3A, 3B)", "format": "cell-based, human", "method": "as §2, §5"}, "[13]": {"settings": "Huh7, PLC/PRF/5, HepG2, P7NSG59410, P31NSG55368"}},
  "note": "Read-outs that look alike come from different tables or passages of the source.",
  "data": [
    {"substance": "2O′-methyl analogue of 5 base pairs polyA:polyU", "values": [
      {"measurement": "cell growth inhibition and death inducing properties", "setting": "[1]", "value": "attenuated cytotstatic/cytotoxic profile"},
      {"measurement": "cytokine production by monocytes", "setting": "THP-1 cells [2]; relative to native 5 bps pA:pU", "value": "attenuated"},
      {"measurement": "TNFalpha induction", "setting": "[3]", "value": "elevated"},
      {"measurement": "cell death", "setting": "[4]", "value": "attenuated cytotstatic/cytotoxic profile"},
      {"measurement": "cell death", "setting": "[5]", "value": "attenuated cytotstatic/cytotoxic profile"},
      {"measurement": "cell growth inhibition and death inducing properties", "setting": "[6]; [13]", "value": "significantly attenuated"},
      {"measurement": "cell growth inhibition and death inducing properties", "setting": "[6]; Huh7, PLC/PRF/5, HepG2, P7NSG59410, P31NSG55368, listed as 2O′-methyl analogue", "value": "less potent"}
    ]},
    {"substance": "5 base pairs polyadenylic-polyuridylic acid [5 bps pA:pU]", "values": [
      {"measurement": "cytotoxicity on cells emulating normal human liver cells", "setting": "THLE2 cells", "value": "only a modest effect"},
      {"measurement": "cytotoxicity on cells emulating normal human liver cells", "setting": "THLE2 cells; listed as 5 bp polyA:polyU", "value": "more refractory"},
      {"measurement": "cytotoxicity on cells emulating normal human liver cells", "setting": "THLE2 cells; listed as low molecular weight dsRNA of 5 bps", "value": "more attenuated cytotoxicity profile"},
      {"measurement": "biological activity in MTT assay", "setting": "[7]", "value": "more biologically active than 15 bps"},
      {"measurement": "cell growth inhibition and death inducing properties", "setting": "[1]", "value": "cell growth inhibition and death inducing properties"},
      {"measurement": "IL-6 induction", "setting": "THP-1 cells [2]; THP-1 cells", "value": "substantially induced"},
      {"measurement": "TNFalpha induction", "setting": "THP-1 cells [2]; THP-1 cells", "value": "substantially induced"},
      {"measurement": "TNFalpha induction", "setting": "[3]", "value": "substantially induced"},
      {"measurement": "IL-6 induction", "setting": "[3]; PLC/PRC/5 cells", "value": "substantially induced"},
      {"measurement": "primary mechanism of cytotoxicity", "setting": "[8]", "value": "cytolysis, with a minimal apoptosis component"},
      {"measurement": "TNF-alpha production", "setting": "[9]", "value": "blunted"},
      {"measurement": "cell growth inhibition and death inducing properties", "setting": "THP-1 cells [10]; listed as low molecular weight dsRNA (5 bps)", "value": "anti-proliferative, pro-death effect"},
      {"measurement": "cell growth inhibition and death inducing properties", "setting": "THP-1 cells [10]; listed as polyA:polyU of 5 bps", "value": "cell growth inhibition and death inducing properties"},
      {"measurement": "cell death", "setting": "[4]", "value": "induces cell death"},
      {"measurement": "cell death", "setting": "[5]", "value": "induces cell death"},
      {"measurement": "cytotoxic or anti-proliferative effect on fibroblasts", "setting": "[11]", "value": "cytotoxic or anti-proliferative effect"},
      {"measurement": "cytotoxic or anti-proliferative effect on fibroblasts", "setting": "[11]; listed as 5 bp polyA:polyU", "value": "sensitive"},
      {"measurement": "cell growth inhibition and death inducing properties", "setting": "[6]; [13]", "value": "cell growth inhibition and death inducing properties"}
    ]},
    {"substance": "polyinosinic:polycytidylic acid [pI:pC, reference compound]", "values": [
      {"measurement": "cell death or apoptosis", "setting": "[8]; FIGS. 3A, 3B, 5A and 5B", "value": "minimal cell death or apoptosis"},
      {"measurement": "cytotoxicity or anti-proliferative effect", "setting": "[8]; FIGS. 3A, 3B, 5A and 5B", "value": "no cytotoxicity or anti-proliferative effect"},
      {"measurement": "IL-6 inducing capabilities", "setting": "[12]", "value": "negligible"},
      {"measurement": "TNFalpha inducing capabilities", "setting": "[12]", "value": "negligible"},
      {"measurement": "cytotoxicity or anti-proliferative effect", "setting": "[4]; PLC/PRC/5 and Huh7", "value": "no cytotoxicity or anti-proliferative effect"},
      {"measurement": "cell death", "setting": "[4]", "value": "minimal cell death or apoptosis"},
      {"measurement": "cytotoxicity or anti-proliferative effect", "setting": "[5]; HepG2 and THP-1", "value": "no cytotoxicity or anti-proliferative effect"},
      {"measurement": "cell death", "setting": "[5]", "value": "minimal cell death or apoptosis"}
    ]}
  ]
}
